Experimental data published in DBAASP.
≈ marks a conversion by molar mass, not a printed value.

Assays:
Assay in all cases: ≥ marks a high value that may be exact or a test limit, other limits are often not marked, values filed in µg/mL are converted to µM
[1] = test system: Escherichia coli 55B5
[2] = test system: Escherichia coli UB1005
[3] = test system: Pseudomonas aeruginosa
[4] = test system: Salmonella typhimurium
[5] = test system: Staphylococcus aureus
[6] = test system: Candida albicans IHEM 8060
[7] = test system: Candida glabrata
[8] = test system: Enterobacter cloacae BCRC 10401
[9] = test system: Escherichia coli BCRC 10675
[10] = test system: Escherichia coli
[11] = test system: Klebsiella aerogenes BCRC 10370
[12] = test system: Klebsiella oxytoca BCRC 13985
[13] = test system: Lactococcus garvieae
[14] = test system: Listeria monocytogenes BCRC 14845
[15] = test system: Pseudomonas aeruginosa BCRC 10944
[16] = test system: Staphylococcus aureus BCRC 10780
[17] = test system: Staphylococcus aureus BCRC 10781
[18] = test system: Staphylococcus xylosus BCRC 12930
[19] = test system: Streptococcus equinus BCRC 14729
[20] = test system: Streptococcus iniae
[21] = test system: Vibrio alginolyticus BCRC 12829
[22] = test system: Vibrio alginolyticus
[23] = test system: Vibrio anguillarum serotype O1
[24] = test system: Vibrio harveyi
[25] = test system: Vibrio parahaemolyticus BCRC 10806
[26] = test system: Vibrio parahaemolyticus
[27] = test system: Yersinia enterocolitica BCRC 13999
[28] = test system: Bacillus cereus C737
[29] = test system: Pseudomonas aeruginosa PAO1
[30] = test system: Bacillus cereus
[31] = test system: Leuconostoc lactis
[32] = test system: Listeria innocua
[33] = test system: Micrococcus luteus
[34] = test system: Pasteurella multocida
[35] = test system: Staphylococcus epidermidis
[36] = test system: Streptococcus uberis
[37] = test system: Pseudomonas aeruginosa PAK
[38] = test system: Streptococcus gordonii Challis DL1
[39] = test system: Streptococcus mitis ATCC 903
[40] = test system: Streptococcus mutans UA159
[41] = test system: Streptococcus sanguinis NY101
[42] = test system: Lacticaseibacillus casei ATCC 4646
[43] = test system: Veillonella atypica PK1910

CC[C@H](C)[C@H](NC(=O)[C@H](C)N)C(=O)N[C@@H](Cc1cnc[nH]1)C(=O)N[C@@H](CCCCN)C(=O)N[C@@H](CC(C)C)C(=O)N[C@@H](C)C(=O)N[C@@H](Cc1cnc[nH]1)C(=O)N[C@@H](CCCCN)C(=O)N[C@@H](CC(C)C)C(=O)N[C@@H](CC(C)C)C(=O)N[C@@H](CCCCN)C(=O)N[C@@H](CCCCN)C(=O)N[C@@H](CC(C)C)C(=O)N[C@@H](CC(C)C)C(=O)N[C@@H](CCCCN)C(=O)N[C@@H](C)C(=O)N[C@H](C(=O)N[C@@H](CCCCN)C(=O)N[C@@H](CCCCN)C(=O)N[C@@H](CC(C)C)C(=O)N[C@@H](C)C(=O)N[C@@H](CCCCN)C(=O)O)C(C)C [AIHKLAHKLLKKLLKAVKKLAK]
MIC [1]: 2 µM (≈ 4.99 µg/mL) | MIC [2]: 2.5 µM (≈ 6.23 µg/mL) | MIC [3]: 4.5 µM (≈ 11.2 µg/mL) | MIC [4]: 6 µM (≈ 15 µg/mL) | MIC [5]: 25 µM (≈ 62.3 µg/mL)

CC[C@H](C)[C@@H]1NC(=O)[C@@H](N)CSSC[C@@H]2NC(=O)[C@@H]3CSSC[C@@H](C(=O)N[C@@H](CCCN=C(N)N)C(=O)O)NC(=O)[C@H](Cc4ccc(O)cc4)NC(=O)CNC(=O)[C@H](C)NC(=O)[C@H](C(C)C)NC(=O)[C@H](Cc4c[nH]c5ccccc45)NC(=O)CNC(=O)[C@@H]4CCCN4C(=O)[C@H](CCC(=O)O)NC(=O)[C@H](CCCCN)NC(=O)[C@H](Cc4cnc[nH]4)NC(=O)[C@H](CSSC[C@H](NC(=O)CNC(=O)[C@H](CC(N)=O)NC(=O)[C@H](CCCN=C(N)N)NC(=O)[C@H](CC(N)=O)NC(=O)[C@H](C)NC1=O)C(=O)N[C@@H](CCC(N)=O)C(=O)N1CCC[C@H]1C(=O)N[C@@H](CC(=O)O)C(=O)NCC(=O)N[C@@H](CO)C(=O)N[C@@H](CCC(N)=O)C(=O)NCC(=O)N[C@@H](CC(N)=O)C(=O)N3)NC(=O)[C@H](Cc1ccc(O)cc1)NC(=O)CNC(=O)[C@H](CO)NC2=O [CIANRNGCQPDGSQGNCCSGYCHKEPGWVAGYCR]
MIC [6]: 17.6 µM (≈ 63.9 µg/mL) | MIC [7]: 17.6 µM (≈ 63.9 µg/mL)

CC[C@H](C)[C@H](NC(=O)[C@H](Cc1ccccc1)NC(=O)[C@H](CCCCN)NC(=O)[C@H](CCCCN)NC(=O)[C@H](C)NC(=O)[C@@H](NC(=O)[C@@H](NC(=O)[C@H](C)NC(=O)[C@H](Cc1ccccc1)NC(=O)[C@H](CCCCN)NC(=O)[C@H](CCCCN)NC(=O)[C@H](C)NC(=O)[C@H](C)NC(=O)[C@H](CC(N)=O)NC(=O)[C@H](C)NC(=O)CN)[C@@H](C)O)[C@@H](C)CC)C(=O)N[C@@H](CC(N)=O)C(=O)N[C@@H](Cc1ccc(O)cc1)C(=O)N[C@@H](CC(C)C)C(=O)N[C@@H](Cc1c[nH]c2ccccc12)C(=O)O [GANAAKKFATIAKKFINYLW]
MIC [8]: 3.55 µM (≈ 8 µg/mL) | MIC [9]: 7.09 µM (≈ 16 µg/mL) | MIC [10]: 14.2 µM (≈ 32 µg/mL) | MIC [11]: 3.55 µM (≈ 8 µg/mL) | MIC [12]: 14.2 µM (≈ 32 µg/mL) | MIC [13]: ≥ 56.7 µM | MIC [14]: 3.55 µM (≈ 8 µg/mL) | MIC [15]: 7.09 µM (≈ 16 µg/mL) | MIC [16]: 7.09 µM (≈ 16 µg/mL) | MIC [17]: 7.09 µM (≈ 16 µg/mL) | MIC [18]: 3.55 µM (≈ 8 µg/mL) | MIC [19]: ≥ 56.7 µM | MIC [20]: ≥ 56.7 µM | MIC [21]: 28.4 µM (≈ 64 µg/mL) | MIC [22]: 3.55 µM (≈ 8 µg/mL) | MIC [23]: 3.55 µM (≈ 8 µg/mL) | MIC [24]: 3.55 µM (≈ 8 µg/mL) | MIC [25]: 28.4 µM (≈ 64 µg/mL) | MIC [26]: 1.77 µM (≈ 4 µg/mL) | MIC [27]: 28.4 µM (≈ 64 µg/mL)

CC[C@H](C)[C@H](NC(=O)[C@H](C)NC(=O)CNC(=O)[C@@H](NC(=O)[C@@H](NC(=O)[C@H](CCCCN)NC(=O)[C@H](CCCCN)NC(=O)[C@@H](NC(=O)[C@@H](NC(=O)[C@H](CC(=O)O)NC(=O)[C@H](Cc1ccccc1)NC(=O)[C@H](CC(C)C)NC(=O)CN)[C@@H](C)CC)C(C)C)C(C)C)C(C)C)C(=O)NCC(=O)N[C@@H](CO)C(=O)N[C@@H](CC(C)C)C(=O)O [GLFDIVKKVVGAIGSL]
MIC [28]: ≥ 79.2 µM | MIC [2]: ≥ 79.2 µM | MIC [29]: > 79.2 µM

CC[C@H](C)[C@H](NC(=O)[C@H](CC(=O)O)NC(=O)[C@H](Cc1ccccc1)NC(=O)[C@H](CC(C)C)NC(=O)CN)C(=O)N[C@H](C(=O)N[C@@H](CCCCN)C(=O)N[C@@H](CCCCN)C(=O)N[C@H](C(=O)N[C@H](C(=O)NCC(=O)N[C@@H](C)C(=O)N[C@@H](CC(C)C)C(=O)NCC(=O)N[C@@H](CO)C(=O)N[C@@H](CC(C)C)C(N)=O)C(C)C)C(C)C)C(C)C [GLFDIVKKVVGALGSL]
MIC [28]: ≥ 79.2 µM | MIC [30]: ≥ 61.9 µM | MIC [2]: ≥ 39.6 µM | MIC [10]: > 61.9 µM | MIC [31]: 7.43 µM (≈ 12 µg/mL) | MIC [32]: 7.43 µM (≈ 12 µg/mL) | MIC [33]: 15.5 µM (≈ 25 µg/mL) | MIC [34]: ≥ 61.9 µM | MIC [29]: > 79.2 µM | MIC [5]: 15.5 µM (≈ 25 µg/mL) | MIC [35]: 15.5 µM (≈ 25 µg/mL) | MIC [36]: ≥ 61.9 µM

CC[C@H](C)[C@H](NC(=O)[C@H](Cc1ccccc1)NC(=O)CNC(=O)CNC(=O)[C@H](CO)NC(=O)[C@H](Cc1ccccc1)NC(=O)[C@H](CCC(N)=O)NC(=O)[C@H](CCCCN)NC(=O)[C@H](CC(C)C)NC(=O)[C@H](CC(C)C)NC(=O)[C@H](CCCCN)NC(=O)[C@H](CC(C)C)NC(=O)[C@H](CC(C)C)NC(=O)[C@H](CCC(N)=O)NC(=O)[C@H](CCCCN)NC(=O)[C@H](CC(C)C)NC(=O)[C@H](CC(C)C)NC(=O)[C@H](CCC(N)=O)NC(=O)[C@@H](N)CC(C)C)C(=O)N[C@@H](CCCCN)C(=O)N[C@@H](Cc1cnc[nH]1)C(=O)N[C@@H](Cc1ccccc1)C(=O)N[C@H](C(=O)N[C@@H](Cc1cnc[nH]1)C(=O)N[C@@H](CCCN=C(N)N)C(=O)N[C@@H](Cc1ccccc1)C(N)=O)[C@@H](C)CC [LQLLKQLLKLLKQFSGGFIKHFIHRF]
MIC [37]: 10.1 µM (≈ 32 µg/mL) | MIC [5]: 10.1 µM (≈ 32 µg/mL) | MIC [38]: 5.07 µM (≈ 16 µg/mL) | MIC [39]: 10.1 µM (≈ 32 µg/mL) | MIC [40]: 2.54 µM (≈ 8 µg/mL) | MIC [41]: 5.07 µM (≈ 16 µg/mL)

CC(C)C[C@H](NC(=O)[C@H](CC(C)C)NC(=O)[C@H](Cc1cnc[nH]1)NC(=O)[C@H](Cc1cnc[nH]1)NC(=O)[C@H](CC(C)C)NC(=O)[C@H](CCCCN)NC(=O)[C@H](CCCCN)NC(=O)[C@H](CC(C)C)NC(=O)[C@H](CC(C)C)NC(=O)[C@H](CCCN=C(N)N)NC(=O)[C@H](CCCN=C(N)N)NC(=O)[C@H](Cc1c[nH]c2ccccc12)NC(=O)[C@@H](N)CCCN=C(N)N)C(=O)N[C@@H](Cc1cnc[nH]1)C(N)=O [RWRRLLKKLHHLLH]
MIC [42]: 8.39 µM (≈ 16 µg/mL) | MIC [37]: 4.2 µM (≈ 8 µg/mL) | MIC [5]: 8.39 µM (≈ 16 µg/mL) | MIC [38]: 8.39 µM (≈ 16 µg/mL) | MIC [39]: 16.8 µM (≈ 32 µg/mL) | MIC [40]: 4.2 µM (≈ 8 µg/mL) | MIC [41]: 8.39 µM (≈ 16 µg/mL) | MIC [43]: 2.1 µM (≈ 4 µg/mL)
